The values below are quoted from earlier work in patent US20070249572A1, “Systems and methods for the delivery of corticosteroids” (Verus Pharmaceuticals, Inc., priority 2005, published 2007).

Each structure is given as a SMILES string.

Turning to `CCCC1O[C@@H]2C[C@H]3[C@@H]4CCC5=CC(=O)C=C[C@]5(C)[C@H]4[C@@H](O)C[C@]3(C)[C@]2(C(=O)CO)O1` (stereo partly drawn) [budesonide, (R,S)-llβ,16α,17,21-tetrahydroxypregna-1,4-diene-3,20-dione cyclic 16,17-acetal with butyraldehyde], the solubility in alcohols entry (alcohols) was “readily soluble in alcohols”. Also, for the setting “water”, the solubility in water entry is listed as “virtually insoluble in water”.
